The data set relates to E. coli strain MBX1335. The note with it: for average OD-600 reached: E. coli MBX1335, 10 g/L in medium, cultures allowed to continue to grow; for inhibition of growth rate: E. coli MBX1335, minimal glucose medium, 2, 5 and 10 g/L, triplicate, FIG. 2.

The values below come from patent US8071355B2, “Polyhydroxyalkanoate production by coenzyme A-dependent aldehyde dehydrogenase pathways” (Metabolix, Inc., priority 2002, dated 2011).

Description: MBX1335 was grown overnight in LB medium supplemented with 25 μg/mL chloramphenicol. […] The base medium in these 3-mL cultures contained, per liter: 5 g glucose; 1 mmol MgSO4; 10 mg thiamine; 25.5 mmol Na2HPO4; 33.3 mmol K2HPO4; 27.2 mmol KH2PO4; 2.78 mg FeSO4.7H2O; 1.98 mg MnCl2.4H2O; 2.81 mg CoSO4.7H2O; 0.17 mg CuCl2.2H2O; 1.67 mg CaCl2.2H2O; 0.29 mg ZnSO4.7H2O; 0.1 g casein hydrolysate; and 25 μg chloramphenicol.

As to 1-propanol, the “average OD-600 reached” value worked out at 3.8 and the “inhibition of growth rate” value was “propionate inhibits the rate of growth substantially more than 1-propanol”.

Take `CCC(=O)[O-].[Na+]` [propionate, sodium propionate]: the “average OD-600 reached” value is 5.0 and the “inhibition of growth rate” value was “propionate inhibits the rate of growth substantially more than 1-propanol”.
